The results in this text go back to US9079930B2, “Substituted pyrimidines” (MERCK SHARP & DOHME CORP., priority 2011, dated 2015).

Structures are written as SMILES.

T1 sequence (Q9GZT9 whole entry): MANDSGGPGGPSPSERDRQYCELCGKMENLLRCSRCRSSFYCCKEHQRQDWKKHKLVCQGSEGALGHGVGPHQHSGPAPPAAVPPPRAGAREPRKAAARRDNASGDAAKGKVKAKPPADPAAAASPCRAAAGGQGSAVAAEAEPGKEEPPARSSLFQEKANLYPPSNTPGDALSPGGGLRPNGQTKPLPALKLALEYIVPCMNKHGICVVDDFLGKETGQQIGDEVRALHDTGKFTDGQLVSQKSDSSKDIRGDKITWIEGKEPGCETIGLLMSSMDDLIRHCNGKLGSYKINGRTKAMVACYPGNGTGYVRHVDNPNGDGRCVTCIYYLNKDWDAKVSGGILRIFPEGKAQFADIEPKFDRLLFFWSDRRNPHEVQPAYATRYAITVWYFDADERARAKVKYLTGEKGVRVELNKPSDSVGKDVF

This assay addresses T1, FLAG-tagged full length PHD2 (Homo sapiens, UniProt Q9GZT9).
T1 construct: FLAG-tagged full length PHD2 expressed in and purified from baculovirus-infected Sf9 cells; FLAG; made in house; host or cells: baculovirus-infected Sf9 cells
Put plainly: PHD2 inhibition assay (time resolved fluorescence, HIF-1α peptide hydroxylation, VHL complex detection). In kind it is biochemical. To be noted: 0.2 μM 2-oxoglutarate, 0.5 μM HIF-1α peptide. The method, then: To each well of a 96-well plate was added 1 μL of test compound in DMSO and 20 μl of assay buffer (50 mM Tris pH 7.4/0.01% Tween-20/0.1 mg/ml bovine serum albumin/10 μM ferrous sulfate/i mM sodium ascorbate/20 μg/ml catalase) containing 0.15 μg/ml FLAG-tagged full length PHD2 expressed in and purified from baculovirus-infected Sf9 cells. After a 30 min preincubation at room temperature, the enzymatic reactions were initiated by the addition of 4 μL of substrates (final concentrations of 0.2 μM 2-oxoglutarate and 0.5 μM HIF-1α peptide biotinyl-DLDLEMLAPYIPMDDDFQL (SEQ ID NO: 1)). After 2 hr at room temperature, the reactions were terminated and signals were developed by the addition of a 25 μL quench/detection mix to a final concentration of 1 mM ortho-phenanthroline, 0.1 mM EDTA, 0.5 nM anti-(His)6 LANCE reagent (Perkin-Elmer Life Sciences), 100 nM AF647-labeled streptavidin (Invitrogen), and 2 μg/ml (His)6-VHL complex (S. Tan (2001) Protein Expr. Purif. 21, 224-234). The ratio of time resolved fluorescence signals at 665 and 620 nm was determined, and percent inhibition was calculated relative to an uninhibited control sample run in parallel.
On to `COc1ccc(C(NC(=O)c2cnc(-n3cccn3)nc2O)c2ccc([PH](=O)O)cc2)cc1` (centres unmarked) [Compound 9-1, 4-((4-Hydroxy-2-(1H-pyrazol-1-yl)pyrimidine-5-carboxamido)(4-methoxyphenyl)methyl)phenylphosphinic acid], for which the IC50 fell in the range of 0.5 to 20 nM. The compound `COc1ccc(C(NC(=O)c2cnc(-c3cccnn3)nc2O)c2ccc([PH](=O)O)cc2)cc1` (centres unmarked) [Compound 9-2, 4-((4-hydroxy-2-(pyridazin-3-yl)pyrimidine-5-carboxamido)(4-methoxyphenyl)methyl)phenylphosphinic acid] returned an IC50 of 0.5 to 20 nM. To `CCOP(=O)(OCC)C(NC(=O)c1cnc(-n2cccn2)nc1O)c1ccc(OC)cc1` (centres unmarked) [Compound 10-1, Diethyl (4-hydroxy-2-(1H-pyrazol-1-yl)pyrimidine-5-carboxamido)(4-methoxyphenyl)methylphosphonate] belongs 0.5 to 20 nM. In turn, `CCOP(=O)(OCC)c1ccc(C(C)C(=O)Nc2cnc(-n3cccn3)nc2O)cc1` (centres unmarked) [Compound 11-1, Diethyl 4-(1-(4-hydroxy-2-(1H-pyrazol-1-yl)pyrimidin-5-ylamino)-1-oxopropan-2-yl)phenylphosphonate] returned a 50% inhibitory concentration (IC50) of 100 to 10000 nM.

With `CCOP(=O)(OCC)c1ccc(C(C)(C)C(=O)Nc2cnc(-n3cccn3)nc2O)cc1` [Compound 12-1, Diethyl 4-(1-(4-hydroxy-2-(1H-pyrazol-1-yl)pyrimidin-5-ylamino)-2-methyl-1-oxopropan-2-yl)phenylphosphonate], the IC50 is 100 to 10000 nM. Take `CCOP(=O)(OCC)c1ccc(C(C(=O)Nc2cnc(-n3cccn3)nc2O)C(C)C)cc1` (centres unmarked) [Compound 13-1, Diethyl 4-(1-(4-hydroxy-2-(1H-pyrazol-1-yl)pyrimidin-5-ylamino)-3-methyl-1-oxobutan-2-yl)phenylphosphonate]: the 50% inhibitory concentration (IC50) was in the range of 20 to 100 nM. In turn, `CCOP(=O)(OCC)c1ccc(C(C(=O)Nc2cnc(-n3cccn3)nc2O)c2ccccc2)cc1` (centres unmarked) [Compound 14-1, Diethyl 4-(2-(4-hydroxy-2-(1H-pyrazol-1-yl)pyrimidin-5-ylamino)-2-oxo-1-phenylethyl)phenylphosphonate] gave an IC50 of 0.5 to 20 nM. To `CCOP(=O)(OCC)c1ccc(C(C(=O)Nc2cnc(-c3cccnn3)nc2O)c2ccccc2)cc1` (centres unmarked) [Compound 14-2, Diethyl 4-(2-(4-hydroxy-2-(pyridazin-3-yl)pyrimidin-5-ylamino)-2-oxo-1-phenylethyl)phenylphosphonate] belongs 100 to 10000 nM. To `CC(NC(=O)c1cnc(-n2cccn2)nc1O)c1ccc(P(=O)(O)O)cc1` (centres unmarked) [Compound 15-1, 4-(1-(4-hydroxy-2-(1H-pyrazol-1-yl)pyrimidine-5-carboxamido)ethyl)phenylphosphonic acid] belongs 20 to 100 nM.

`C[C@@H](NC(=O)c1cnc(-n2cccn2)nc1O)c1ccc(P(=O)(O)O)cc1` [Compound 15-2, (R)-4-(1-(4-hydroxy-2-(1H-pyrazol-1-yl)pyrimidine-5-carboxamido)ethyl)phenyl phosphonic acid] came in with an IC50 of 0.5 to 20 nM. The same measure for `C[C@H](NC(=O)c1cnc(-n2cccn2)nc1O)c1ccc(P(=O)(O)O)cc1` [Compound 15-3, (S)-4-(1-(4-hydroxy-2-(1H-pyrazol-1-yl)pyrimidine-5-carboxamido)ethyl)phenylphosphonic acid]: 100 to 10000 nM. Compound `CCCP(=O)(O)c1ccc(C(NC(=O)c2cnc(-n3cccn3)nc2O)c2ccccc2)cc1` (centres unmarked) [Compound 16-1, 4-((4-hydroxy-2-(1H-pyrazol-1-yl)pyrimidine-5-carboxamido)(phenyl)methyl)phenyl(propyl)phosphinic acid] gave an IC50 of 0.5 to 20 nM.

Consider `CP(=O)(O)c1ccc(C(NC(=O)c2cnc(-n3cccn3)nc2O)c2ccc(F)cc2)cc1` (centres unmarked) [Compound 17-1, 4-((4-fluorophenyl)(4-hydroxy-2-(1H-pyrazol-1-yl)pyrimidine-5-carboxamido)methyl)phenyl(methyl)phosphinic acid], for which the IC50 lay within 0.5 to 20 nM. `CP(=O)(O)c1ccc([C@H](NC(=O)c2cnc(-n3cccn3)nc2O)c2ccc(F)cc2)cc1` [Compound 18-1, 4-((R)-(4-fluorophenyl)(4-hydroxy-2-(1H-pyrazol-1-yl)pyrimidine-5-carboxamido)methyl)phenyl(methyl)phosphinic acid] displayed an IC50 of 0.5 to 20 nM. The same measure for `CP(=O)(O)c1ccc([C@@H](NC(=O)c2cnc(-n3cccn3)nc2O)c2ccc(F)cc2)cc1` [Compound 19-1, 4-((S)-(4-fluorophenyl)(4-hydroxy-2-(1H-pyrazol-1-yl)pyrimidine-5-carboxamido)methyl)phenyl(methyl)phosphinic acid]: 0.5 to 20 nM; for `CP(=O)(O)c1ccc([C@@H](NC(=O)c2cnc(-n3cccn3)nc2O)c2ccc(F)cc2F)cc1` [Compound 20-1, 4-((R)-(2,4-difluorophenyl)(4-hydroxy-2-(1H-pyrazol-1-yl)pyrimidine-5-carboxamido)methyl)phenyl(methyl)phosphinic acid]: 0.5 to 20 nM.

`CP(=O)(O)c1ccc([C@H](NC(=O)c2cnc(-n3cccn3)nc2O)c2ccc(F)cc2F)cc1` [Compound 21-1, 4-((S)-(2,4-difluorophenyl)(4-hydroxy-2-(1H-pyrazol-1-yl)pyrimidine-5-carboxamido)methyl)phenyl(methyl)phosphinic acid] registered an IC50 of 0.5 to 20 nM.

In turn, `CP(=O)(O)c1ccc([C@@H](NC(=O)c2cnc(-n3cccn3)nc2O)c2ccccc2)cc1` [Compound 22-1, 4-((S)-(4-hydroxy-2-(1H-pyrazol-1-yl)pyrimidine-5-carboxamido)(phenyl)methyl)phenyl(methyl)phosphinic acid] came in with an IC50 of 0.5 to 20 nM. Compound `CP(=O)(O)c1ccc([C@H](NC(=O)c2cnc(-n3cccn3)nc2O)c2ccccc2)cc1` [Compound 23-1, 4-((R)-(4-hydroxy-2-(1H-pyrazol-1-yl)pyrimidine-5-carboxamido)(phenyl)methyl)phenyl(methyl)phosphinic acid] gave an IC50 of 0.5 to 20 nM. The same measure for `CP(=O)(O)c1cccc([C@H](NC(=O)c2cnc(-n3cccn3)nc2O)c2ccccc2)c1` [Compound 24-1, 3-((R)-(4-hydroxy-2-(1H-pyrazol-1-yl)pyrimidine-5-carboxamido)(phenyl)methyl)phenyl(methyl)phosphinic acid]: 0.5 to 20 nM. The same measure for `CP(=O)(O)c1cccc([C@@H](NC(=O)c2cnc(-n3cccn3)nc2O)c2ccccc2)c1` [Compound 25-1, 3-((S)-(4-hydroxy-2-(1H-pyrazol-1-yl)pyrimidine-5-carboxamido)(phenyl)methyl)phenyl(methyl)phosphinic acid]: 0.5 to 20 nM; for `CP(=O)(O)c1ccc([C@H](NC(=O)c2cnc(-n3cccn3)nc2O)C2CCCCC2)cc1` [Compound 26-1, 4-((R)-cyclohexyl(4-hydroxy-2-(1H-pyrazol-1-yl)pyrimidine-5-carboxamido)methyl)phenyl(methyl)phosphinic acid]: 0.5 to 20 nM; for `CP(=O)(O)c1ccc([C@@H](NC(=O)c2cnc(-n3cccn3)nc2O)C2CCCCC2)cc1` [Compound 27-1, 4-((S)-cyclohexyl(4-hydroxy-2-(1H-pyrazol-1-yl)pyrimidine-5-carboxamido)methyl)phenyl(methyl)phosphinic acid]: 0.5 to 20 nM.

Compound `CP(=O)(O)c1ccc([C@@H](NC(=O)c2cnc(-n3cc(F)cn3)nc2O)c2ccc(F)cc2)cc1` [Compound 28-1, 4-((S)-(2-(4-fluoro-1H-pyrazol-1-yl)-4-hydroxypyrimidine-5-carboxamido)(4-fluorophenyl)methyl)phenyl(methyl)phosphinic acid] showed an IC50 of 100 to 10000 nM. To `CP(=O)(O)c1ccc([C@H](NC(=O)c2cnc(-n3cc(F)cn3)nc2O)c2ccc(F)cc2)cc1` [Compound 29-1, 4-((R)-(2-(4-fluoro-1H-pyrazol-1-yl)-4-hydroxypyrimidine-5-carboxamido)(4-fluorophenyl)methyl)phenyl(methyl)phosphinic acid] belongs 0.5 to 20 nM; to `O=C(NC(c1ccccc1)P(=O)(O)O)c1cnc(-c2cccnn2)nc1O` (centres unmarked) [Compound 30-1, (4-hydroxy-2-(pyridazin-3-yl)pyrimidine-5-carboxamido)(phenyl)methylphosphonic acid], 20 to 100 nM; to `COc1ccc(C(NC(=O)c2cnc(-c3cccnn3)nc2O)P(=O)(O)O)cc1` (centres unmarked) [Compound 30-2, (4-Hydroxy-2-(pyridazin-3-yl)pyrimidine-5-carboxamido)(4-methoxyphenyl)methyl phosphonic acid], 0.5 to 20 nM.

On to `O=C(NC(c1ccc2ccccc2c1)P(=O)(O)O)c1cnc(-c2cccnn2)nc1O` (centres unmarked) [Compound 30-3, (4-Hydroxy-2-(pyridazin-3-yl)pyrimidine-5-carboxamido)(naphthalen-2-yl)methyl phosphonic acid], for which the IC50 fell in the range of 0.5 to 20 nM. The same measure for `CCOC(=O)CNP(=O)(NCC(=O)OCC)c1ccc(C(NC(=O)c2cnc(-c3cccnn3)nc2O)c2ccc(OC)cc2)cc1` (centres unmarked) [Compound 31-1, Diethyl 2,2′-((4-((4-hydroxy-2-(pyridazin-3-yl)pyrimidine-5-carboxamido)(4-methoxyphenyl)methyl)phenyl)phosphoryl)bis(azanediyl)diacetate]: 0.5 to 20 nM.

One may read the IC50 as the concentration that gives 50% inhibition.
